Experimental data as given in patent US20140349941A1, “AROMATIC-CATIONIC PEPTIDES AND USES OF SAME” (Cornell University, priority 2011, published 2014).

Experiments:
[1] = biological target: heme environment of cytochrome c (with CL) (Homo sapiens, UniProt P99999); experiment: Soret CD spectrum of cyt C in the presence of CL; assay type: binding; conditions: cyt C 10 μM; CL 30 μg/ml; peptide 10 μM; 20 mM HEPES pH 7.5, 25° C.; FIG. 24
Method: Circular dichroism (CD) was carried out to examine the effects of the peptides on protecting the heme environment of cyt C from the acyl chain of CL. For heme proteins, the Soret CD spectrum is strictly correlated with the heme pocket conformation. In particular, the negative 416-420 nm Cotton effect is considered diagnostic of Fe(III)-Met80 coordination in native cyt C (Santucci and Ascoli, 1997). […] CD spectra were obtained using AVIV CD Spectrometer Model 410.
Changes in the Soret CD spectrum of cyt C (10 μM) were recorded in the absence (dotted line) and presence (dashed line) of 30 μg/ml CL, plus addition of different peptides (10 μM) (solid line) (FIG. 24). CD measurements were carried out using 20 mM HEPES, pH 7.5, at 25° C. and expressed as molar ellipticity (θ) (m Deg).

[2] = biological target: T1, horse radish peroxidase (HRP) (Armoracia rusticana, UniProt P00433); experiment: HRP activity (amplex red); assay type: biochemical; conditions: data not shown
T1 sequence (P00433 31-338 limits assumed): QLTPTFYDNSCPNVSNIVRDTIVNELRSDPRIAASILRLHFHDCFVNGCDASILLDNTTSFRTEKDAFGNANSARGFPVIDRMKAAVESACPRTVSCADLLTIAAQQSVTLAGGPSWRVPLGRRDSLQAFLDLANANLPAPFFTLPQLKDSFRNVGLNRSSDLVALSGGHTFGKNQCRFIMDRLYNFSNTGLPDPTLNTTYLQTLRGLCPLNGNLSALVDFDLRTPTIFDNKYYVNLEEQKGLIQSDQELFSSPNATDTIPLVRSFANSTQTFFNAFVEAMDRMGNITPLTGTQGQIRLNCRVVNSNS
Source text: The six coordination of the heme in cytochrome c prevents direct interaction of H2O2 with the catalytic metal site, and native cytochrome c in solution is a poor peroxidase. Upon interaction with CL, cytochrome c undergoes a structural change with rupture of the Fe-Met80 coordination. […] The mechanism of action of cytochrome c peroxidase is similar to that of other peroxidases, such as horse radish peroxidase (HRP). Thus it is possible to use the amplex red-HRP reaction to investigate cytochrome c peroxidase activity. In the presence of peroxidase, amplex red (AR) reacts with H2O2 to form the red-fluorescent oxidation product, resorufin (Ex/Em=571/585).

cyt c heme = cyt c heme (Homo sapiens, UniProt P99999); experiment: Circular dichroism of cyt c Soret band; assay type: binding; conditions: negative peak at 415 nm without peptide; FIG. 4
cyt c heme, sequence (P99999 2-105 limits assumed, species assumed): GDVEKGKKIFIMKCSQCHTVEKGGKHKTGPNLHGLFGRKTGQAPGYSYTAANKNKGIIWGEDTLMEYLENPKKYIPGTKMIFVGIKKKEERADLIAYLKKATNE
Method: Circular dichroism (Olis spectropolarimeter, DSM20) was carried out to monitor Soret band (negative peak at 415 nm), as a probe for the π-π* heme environment in cyt c (FIG. 4). […] The increase in π-π* interaction around the heme would enhance electron tunneling which would be favorable for electron diffusion.

cyt c = cyt c (Homo sapiens, UniProt P99999); experiment: Photoluminescence of cyt c (532.8 nm laser excitation); conditions: excitation 532.8 nm
cyt c, sequence (P99999 2-105 limits assumed, species assumed): as above
Source text: A light source 140, such as a laser or light-emitting diode (LED), illuminates the doped cyt c layer 110 at an excitation wavelength, such as 532.8 nm. […] (As understood by those skilled in the art, the gap between the valence band and the excited state is […] to the excitation wavelength.) After a short relaxation time, the electron decays from the excited state to a conduction band. When the electron relaxes to valence band from the conduction band, the doped cyt c layer 110 emits a photon at a luminescence wavelength, such as 650 nm, fixed by the gap between the valence and conduction bands.
Thus, as the aromatic-cationic peptide or aromatic-cationic peptide/cardiolipin or cardiolipin concentration in the doped cyt c layer 110 varies due to changes in the pH and/or temperature of the test substrate 130, the intensity at the luminescence wavelength varies as well. Detecting this change in intensity with a photodetector 150 yields an indication of the pH and/or temperature of the test substrate 130.
Photoluminescence (PL) was carried out to examine the effects of SS-31 on the electronic structure of conduction band of the heme of cyt c, an energy state responsible for electronic transport (FIG. 3). A […] laser (532.8 nm) was used to excite electrons in cyt c (FIG. 2A). Strong PL emission in cyt c state can be clearly identified at 650 nm (FIG. 2B).

heme environment of cytochrome c (with CL), sequence (P99999 2-105 limits assumed, species assumed): as above

D-Arg-2′6′Dmt-Lys-Phe-NH2 [SS-31]
disappearance of the negative Cotton effect caused by CL (heme environment of cytochrome c) [1]: Protect the Heme Environment of Cytochrome C from the Acyl Chain of CL | HRP activity [2]: had no effect on HRP activity | position of Soret band negative peak after red shift (cyt c heme): 440 nm | PL intensity of cyt c at 650 nm (cyt c): increased dose-dependently
